Results from ChEMBL document CHEMBL1150671, “Online analysis of xestodecalactones A-C, novel bioactive metabolites from the fungus Penicillium cf. montanense and their subsequent isolation from the sponge Xestospongia exigua” (2002).
Active and inactive are the calls of the source. The rule behind the calls is not given here.

How the values were obtained:
Escherichia coli [1] = assay: Antibacterial activity against Escherichia coli HB 101; assay type: functional, organism-based
Bacillus subtilis = assay: Antibacterial activity against Bacillus subtilis 168; assay type: functional, organism-based; details: subsp. subtilis str. 168
Escherichia coli [2] = assay: Antibacterial activity against Escherichia coli ATCC 25922; assay type: functional, organism-based
Staphylococcus aureus = assay: Antibacterial activity against Staphylococcus aureus ATCC 25923; assay type: functional, organism-based
Candida albicans [3] = assay: Antifungal activity against Candida albicans at 100 umol by agar diffusion assay; assay type: functional
Candida albicans [4] = assay: Antifungal activity against Candida albicans at 20 umol by agar diffusion assay; assay type: functional
Candida albicans [5] = assay: Antifungal activity against Candida albicans at 50 umol by agar diffusion assay; assay type: functional

| SMILES | Activity (Escherichia coli [1]) | Activity (Bacillus subtilis) | Activity (Escherichia coli [2]) | Activity (Staphylococcus aureus) | inhibition zone (IZ) (Candida albicans [3]) [mm] | inhibition zone (IZ) (Candida albicans [4]) [mm] | inhibition zone (IZ) (Candida albicans [5]) [mm] |
| --- | --- | --- | --- | --- | --- | --- | --- |
| C[C@H]1CCCCCC(=O)c2c(O)cc(O)cc2CC(=O)O1 | inactive | inactive | inactive | inactive |  |  |  |
| C[C@@H]1CCCC(=O)C[C@@H](O)CC(=O)O1 | inactive | inactive | inactive | inactive |  |  |  |
| C[C@@H]1C[C@H](O)CCCC(=O)CC(=O)O1 | inactive | inactive | inactive | inactive |  |  |  |
| C[C@@H]1C[C@H](O)CC(=O)c2c(O)cc(O)cc2CC(=O)O1 [XESTODECALACTONE B] | inactive | inactive | inactive | inactive | 25 | 7 | 12 |
| C[C@H]1CCC[C@H](O)CC(=O)c2c(O)cc(O)cc2CC(=O)O1 | inactive | inactive | inactive | inactive |  |  |  |
| C[C@H]1CCC[C@@H](O)CC(=O)c2c(O)cc(O)cc2CC(=O)O1 | inactive | inactive | inactive | inactive |  |  |  |
| CC1C/C=C/C(=O)c2c(O)cc(O)cc2CC(=O)O1 (centres undefined) | inactive | inactive | inactive | inactive |  |  |  |
| C[C@@H]1CCCC(=O)c2c(O)cc(O)cc2CC(=O)O1 | inactive | inactive | inactive | inactive |  |  |  |
| C[C@H]1C[C@H](O)CC(=O)c2c(O)cc(O)cc2CC(=O)O1 | inactive | inactive | inactive | inactive |  |  |  |
